We go through two molecules from patent US20070072883A1, “Fungicidal mixtures” (BASF Aktiengesellschaft, priority 2003, published 2007).

One assay concerns Cochliobolus miyabeanus. The experiment in a line: Activity against brown spot of rice caused by Cochliobolus miyabeanus, protective application. It counts as in vivo. As to conditions: rice seedlings "Tai-Nong 67", six days after inoculation. On the procedure:
(§1) The active compounds, separately or jointly, were prepared as a stock solution comprising 0.25% by weight of active compound in acetone or DMSO. 1% by weight of the emulsifier Uniperol® EL (wetting agent having emulsifying and dispersant action based on ethoxylated alkylphenols) was added to this solution, and the mixture was diluted with water to the desired concentration.
Use Example 1—Activity Against Brown Spot of Rice Caused by Cochliobolus miyabeanus, Protective Application Leaves of potted rice seedlings of the cultivar “Tai-Nong 67” were sprayed to runoff point with an aqueous suspension of the concentration of active compound stated below. The next day, the plants were inoculated with an aqueous spore suspension of Cochliobolus miyabeanus. The test plants were then placed in climatized chambers at 22-24° C. and 95-99% relative atmospheric humidity for six days. The extent of the development of the infection on the leaves was then determined visually.
Evaluation was carried out by determining the percentage of infected leaf area. These percentages were converted into efficacies.
The efficacy (E) is calculated as follows using Abbot's formula: E=(1−α/β)·100 α corresponds to the fungicidal infection of the treated plants in % and β corresponds to the fungicidal infection of the untreated (control) plants in % An efficacy of 0 means that the infection level of the treated plants corresponds to that of the untreated control plants; an efficacy of 100 means that the treated plants are not infected.
The expected efficacies of mixtures of active compounds are determined using Colby's formula (R. S. Colby, Weeds, 15, 20-22, 1967) and compared with the observed efficacies.
Colby's formula: E=x+y−x·y/100 • E expected efficacy, expressed in % of the untreated control, when using the mixture of the active compounds A and B at the concentrations a and b • x efficacy, expressed in % of the untreated control, when using the active compound A at the concentration a y efficacy, expressed in % of the untreated control, when using the active compound B at the concentration b

The next assay concerns Corticium sasakii. The assay can be described thus: Activity against sheath blight on rice caused by Corticium sasakii. Type of assay: in vivo. As to conditions: rice plants "Tai-Nong 67", after 11 days. On the procedure:
as §1
Use Example 2—Activity Against Sheath Blight on Rice Caused by Corticium sasakii
Pots with rice plants of the cultivar “Tai-Nong 67”, were sprayed to runoff point with an aqueous suspension having the concentration of active compounds stated below. The next day, oat grains infected with Corticium sasakii were placed into the pots (in each case 5 grains per pot). The plants were then placed in a chamber at 26° C. and maximum atmospheric humidity. After 11 days, the sheath blight on the untreated but infected control plants had developed to such an extent that the infection could be determined visually in %.
Evaluation was carried out analogously to Example 1.

Regarding `CC1CCN(c2c(-c3c(F)cc(F)cc3F)c(Cl)nc3ncnn23)CC1` [I, 5-chloro-7-(4-methylpiperidin-1-yl)-6-(2,4,6-trifluorophenyl)-[1,2,4]triazolo[1,5-a]pyrimidine], the “Efficacy in % of the untreated control” value is 33% with Cochliobolus miyabeanus (4 ppm in the spray liquor) and 37% in the assay on Corticium sasakii (4 ppm in the spray liquor).

As to `N#Cc1c[nH]cc1-c1cccc2c1OC(F)(F)O2` [II (fludioxonil), 4-(2,2-difluorobenzo[1,3]dioxol-4-yl)-1H-pyrrole-3-carbonitrile], the “Efficacy in % of the untreated control” value with Cochliobolus miyabeanus (1 ppm in the spray liquor) amounted to 0%; in the assay with Cochliobolus miyabeanus (4 ppm in the spray liquor), 33%; with Corticium sasakii (1 ppm in the spray liquor), 0%; in the assay on Corticium sasakii (4 ppm in the spray liquor), 6%.
